According to ChEMBL document CHEMBL4152385, “Synthesis, Receptor Affinity, and Antiallodynic Activity of Spirocyclic σ Receptor Ligands with Exocyclic Amino Moiety” (J Med Chem, 2018):
Blank lines part the entries; values can stand above or below the compound they belong to. Activity calls are given as the source filed them. The rule behind the calls is not given here.

Tests used:
[1] = biological target: T1, Sigma non-opioid intracellular receptor 1 (Cavia porcellus, UniProt Q60492); test: Displacement of [3H]-(+)-pentazocine from sigma1 receptor in guinea pig brain cortex membranes incubated for 120 mins by scintillation counting method; format: cell membranes
T1 sequence (Q60492 whole entry): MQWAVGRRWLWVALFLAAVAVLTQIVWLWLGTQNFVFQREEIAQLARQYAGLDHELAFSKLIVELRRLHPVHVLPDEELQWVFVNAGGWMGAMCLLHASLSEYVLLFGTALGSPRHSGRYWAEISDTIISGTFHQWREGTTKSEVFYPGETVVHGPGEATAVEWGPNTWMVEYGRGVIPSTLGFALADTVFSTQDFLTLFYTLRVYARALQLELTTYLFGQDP

[2] = biological target: T2, Sigma intracellular receptor 2 (Rattus norvegicus, UniProt Q5U3Y7); test: Displacement of [3H]-di-o-tolylguanidine from sigma2 receptor in rat liver membranes incubated for 120 mins by scintillation counting method; format: cell membranes, Membrane
T2 sequence (Q5U3Y7 whole entry): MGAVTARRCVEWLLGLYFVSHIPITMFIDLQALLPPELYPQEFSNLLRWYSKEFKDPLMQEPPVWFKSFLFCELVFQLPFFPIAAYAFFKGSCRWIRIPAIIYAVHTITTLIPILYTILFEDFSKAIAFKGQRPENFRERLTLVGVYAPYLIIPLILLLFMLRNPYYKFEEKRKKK

[3] = biological target: Sodium-dependent noradrenaline transporter (Homo sapiens) (UniProt P23975); test: Inhibition of NET (unknown origin) at 1 uM relative to control
Chain of Sodium-dependent noradrenaline transporter (Homo sapiens) (P23975 whole entry): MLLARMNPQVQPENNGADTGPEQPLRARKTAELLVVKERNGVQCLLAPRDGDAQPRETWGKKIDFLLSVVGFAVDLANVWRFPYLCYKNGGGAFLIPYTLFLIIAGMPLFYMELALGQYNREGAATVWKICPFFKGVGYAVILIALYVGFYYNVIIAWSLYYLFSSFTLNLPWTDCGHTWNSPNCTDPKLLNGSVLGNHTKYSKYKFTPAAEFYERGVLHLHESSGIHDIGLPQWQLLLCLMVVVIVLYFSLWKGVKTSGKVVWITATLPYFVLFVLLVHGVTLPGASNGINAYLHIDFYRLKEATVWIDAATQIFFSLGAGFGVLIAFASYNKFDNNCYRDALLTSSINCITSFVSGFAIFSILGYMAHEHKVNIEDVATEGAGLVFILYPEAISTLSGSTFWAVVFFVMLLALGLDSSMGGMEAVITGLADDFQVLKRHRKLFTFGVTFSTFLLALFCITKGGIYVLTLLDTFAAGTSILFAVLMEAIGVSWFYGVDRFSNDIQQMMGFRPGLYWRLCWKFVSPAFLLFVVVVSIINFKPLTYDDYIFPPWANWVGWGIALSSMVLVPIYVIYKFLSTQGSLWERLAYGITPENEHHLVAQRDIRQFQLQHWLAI

[4] = biological target: Histamine H1 receptor (Homo sapiens) (UniProt P35367); test: Inhibition of histamine H1 receptor (unknown origin) at 1 uM relative to control
Chain of Histamine H1 receptor (Homo sapiens) (P35367 whole entry): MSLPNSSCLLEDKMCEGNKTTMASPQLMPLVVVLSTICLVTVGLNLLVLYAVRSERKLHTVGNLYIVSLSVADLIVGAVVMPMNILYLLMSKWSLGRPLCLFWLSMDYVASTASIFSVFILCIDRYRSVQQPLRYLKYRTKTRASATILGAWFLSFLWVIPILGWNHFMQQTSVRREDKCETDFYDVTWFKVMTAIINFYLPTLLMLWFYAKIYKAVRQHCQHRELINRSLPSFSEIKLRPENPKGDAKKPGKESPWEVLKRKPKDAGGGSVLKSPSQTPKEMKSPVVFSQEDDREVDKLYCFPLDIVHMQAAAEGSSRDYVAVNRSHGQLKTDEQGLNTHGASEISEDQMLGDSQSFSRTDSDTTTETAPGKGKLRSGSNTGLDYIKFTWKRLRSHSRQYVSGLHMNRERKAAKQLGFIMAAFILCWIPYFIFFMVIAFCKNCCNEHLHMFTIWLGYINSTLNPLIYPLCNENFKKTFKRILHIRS

[5] = biological target: Kappa-type opioid receptor (Cavia porcellus, UniProt P41144); test: Displacement of [3H]U-69,593 from KOR in guinea pig brain membranes incubated for 120 mins by scintillation counting method; format: cell membranes, Membrane
Chain of Kappa-type opioid receptor (P41144 whole entry): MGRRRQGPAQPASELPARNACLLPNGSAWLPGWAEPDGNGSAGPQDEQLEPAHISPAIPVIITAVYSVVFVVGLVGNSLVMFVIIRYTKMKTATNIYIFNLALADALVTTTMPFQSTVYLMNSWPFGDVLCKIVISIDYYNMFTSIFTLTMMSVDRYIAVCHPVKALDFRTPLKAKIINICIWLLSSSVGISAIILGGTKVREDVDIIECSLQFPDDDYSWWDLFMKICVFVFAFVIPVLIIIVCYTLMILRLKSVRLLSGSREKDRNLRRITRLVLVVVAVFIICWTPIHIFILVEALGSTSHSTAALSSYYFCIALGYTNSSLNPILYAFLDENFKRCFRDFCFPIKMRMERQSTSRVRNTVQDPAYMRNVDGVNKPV

[6] = biological target: Sodium-dependent serotonin transporter (Homo sapiens) (UniProt P31645); test: Inhibition of SERT (unknown origin) at 1 uM relative to control
Chain of Sodium-dependent serotonin transporter (Homo sapiens) (P31645 whole entry, looked up): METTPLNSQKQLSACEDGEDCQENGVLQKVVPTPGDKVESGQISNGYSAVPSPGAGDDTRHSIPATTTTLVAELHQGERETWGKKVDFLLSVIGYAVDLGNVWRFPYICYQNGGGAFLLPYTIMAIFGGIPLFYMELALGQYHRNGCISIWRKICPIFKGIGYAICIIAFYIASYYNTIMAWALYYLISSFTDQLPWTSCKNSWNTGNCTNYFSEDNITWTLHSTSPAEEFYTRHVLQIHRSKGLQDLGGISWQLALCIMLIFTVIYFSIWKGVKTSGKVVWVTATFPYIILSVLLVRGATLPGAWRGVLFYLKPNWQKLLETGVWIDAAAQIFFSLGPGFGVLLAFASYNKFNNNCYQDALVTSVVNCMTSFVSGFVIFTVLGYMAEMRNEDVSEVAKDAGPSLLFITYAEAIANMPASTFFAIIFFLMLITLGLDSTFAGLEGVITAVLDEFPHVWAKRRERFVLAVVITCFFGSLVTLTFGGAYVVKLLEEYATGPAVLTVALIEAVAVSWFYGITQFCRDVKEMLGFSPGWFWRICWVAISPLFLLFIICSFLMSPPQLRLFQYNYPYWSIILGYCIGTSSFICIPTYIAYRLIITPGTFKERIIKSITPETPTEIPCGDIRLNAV

[7] = biological target: 5-hydroxytryptamine receptor 2B (Homo sapiens) (UniProt P41595); test: Inhibition of 5-HT2B receptor (unknown origin) at 1 uM relative to control
Chain of 5-hydroxytryptamine receptor 2B (Homo sapiens) (P41595 whole entry): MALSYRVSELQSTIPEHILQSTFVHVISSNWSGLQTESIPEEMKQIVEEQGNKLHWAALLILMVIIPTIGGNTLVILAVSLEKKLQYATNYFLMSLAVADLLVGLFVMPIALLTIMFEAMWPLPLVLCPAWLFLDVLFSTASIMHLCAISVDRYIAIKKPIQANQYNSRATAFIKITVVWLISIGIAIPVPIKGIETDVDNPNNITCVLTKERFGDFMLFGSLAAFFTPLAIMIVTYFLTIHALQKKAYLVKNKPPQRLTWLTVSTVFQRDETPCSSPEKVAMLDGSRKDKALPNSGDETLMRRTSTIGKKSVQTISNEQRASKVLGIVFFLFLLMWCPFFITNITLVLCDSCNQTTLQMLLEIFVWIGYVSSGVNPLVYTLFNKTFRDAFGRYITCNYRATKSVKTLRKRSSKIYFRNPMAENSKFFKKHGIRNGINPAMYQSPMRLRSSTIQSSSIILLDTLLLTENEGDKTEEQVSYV

[8] = biological target: T3, Alpha-1A adrenergic receptor (Homo sapiens) (UniProt P35348); test: Inhibition of alpha-1A adrenergic receptor (unknown origin) at 1 uM relative to control
T3 sequence (whole entry): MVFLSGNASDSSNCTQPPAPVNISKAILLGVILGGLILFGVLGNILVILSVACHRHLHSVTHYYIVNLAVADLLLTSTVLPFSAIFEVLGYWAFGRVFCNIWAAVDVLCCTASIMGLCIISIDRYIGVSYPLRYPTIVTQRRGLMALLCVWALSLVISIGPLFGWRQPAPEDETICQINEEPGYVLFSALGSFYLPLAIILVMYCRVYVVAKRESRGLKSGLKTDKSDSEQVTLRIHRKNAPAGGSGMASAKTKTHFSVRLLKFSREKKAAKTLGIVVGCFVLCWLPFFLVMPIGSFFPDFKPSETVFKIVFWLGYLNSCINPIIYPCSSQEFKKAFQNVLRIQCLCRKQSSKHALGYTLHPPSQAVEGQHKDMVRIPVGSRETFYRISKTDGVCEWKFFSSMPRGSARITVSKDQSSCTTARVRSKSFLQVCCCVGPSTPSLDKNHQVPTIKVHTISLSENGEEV

[9] = Stability in pH 7.4 phosphate buffer assessed as parent compound remaining after 24 hrs by HPLC; format: physicochemical; settings: pH 7.4, 24 h
[10] = Stability in pH 2 aqueous HCl solution assessed as parent compound remaining after 24 hrs by HPLC; format: physicochemical; settings: buffer, pH 2, 24 h
[11] = biological target: T4, 5-hydroxytryptamine receptor 1A (Homo sapiens) (UniProt P08908); test: Inhibition of 5-HT1A receptor (unknown origin) at 1 uM relative to control
T4 sequence (whole entry): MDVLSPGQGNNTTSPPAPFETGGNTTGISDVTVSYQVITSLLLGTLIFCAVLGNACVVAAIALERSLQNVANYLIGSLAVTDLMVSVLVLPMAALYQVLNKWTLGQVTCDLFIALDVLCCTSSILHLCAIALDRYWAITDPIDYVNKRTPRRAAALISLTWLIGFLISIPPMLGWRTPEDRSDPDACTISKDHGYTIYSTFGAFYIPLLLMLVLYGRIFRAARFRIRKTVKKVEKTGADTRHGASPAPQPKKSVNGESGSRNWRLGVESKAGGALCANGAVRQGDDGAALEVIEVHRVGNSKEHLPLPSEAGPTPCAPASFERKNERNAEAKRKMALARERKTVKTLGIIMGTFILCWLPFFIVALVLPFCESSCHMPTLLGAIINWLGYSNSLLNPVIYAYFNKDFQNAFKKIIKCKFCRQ

[12] = biological target: Voltage-gated inwardly rectifying potassium channel KCNH2 (Homo sapiens, UniProt Q12809); test: Inhibition of human ERG expressed in CHO cells by automated patch clamp assay; format: cell-based
[13] = biological target: Sodium-dependent dopamine transporter (Homo sapiens) (UniProt Q01959); test: Inhibition of DAT (unknown origin) at 1 uM relative to control
Chain of Sodium-dependent dopamine transporter (Homo sapiens) (Q01959 whole entry): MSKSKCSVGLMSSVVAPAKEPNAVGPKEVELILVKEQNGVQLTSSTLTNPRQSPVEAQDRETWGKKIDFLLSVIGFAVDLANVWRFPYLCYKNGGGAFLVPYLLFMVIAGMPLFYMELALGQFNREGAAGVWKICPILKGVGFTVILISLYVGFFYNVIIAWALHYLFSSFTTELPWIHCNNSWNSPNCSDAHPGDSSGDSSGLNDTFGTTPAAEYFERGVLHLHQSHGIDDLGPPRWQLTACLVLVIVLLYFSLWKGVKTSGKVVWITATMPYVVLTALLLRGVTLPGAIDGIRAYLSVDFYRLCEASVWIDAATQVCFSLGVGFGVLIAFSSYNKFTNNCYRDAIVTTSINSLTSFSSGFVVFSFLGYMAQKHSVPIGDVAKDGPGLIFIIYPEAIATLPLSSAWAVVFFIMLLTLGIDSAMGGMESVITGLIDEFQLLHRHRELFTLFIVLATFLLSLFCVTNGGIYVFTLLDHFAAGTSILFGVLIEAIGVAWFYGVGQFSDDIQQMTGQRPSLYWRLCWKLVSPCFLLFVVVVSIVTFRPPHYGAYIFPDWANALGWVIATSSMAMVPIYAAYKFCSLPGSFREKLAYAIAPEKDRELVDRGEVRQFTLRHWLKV

[14] = biological target: Glutamate receptor ionotropic, NMDA 2B (Homo sapiens, UniProt Q13224); test: Displacement of [3H]ifenprodil from GluN2B (unknown origin) expressed in mouse L(tk-) cell membranes incubated for 120 mins by scintillation counting method
Chain of Glutamate receptor ionotropic, NMDA 2B (Q13224 whole entry): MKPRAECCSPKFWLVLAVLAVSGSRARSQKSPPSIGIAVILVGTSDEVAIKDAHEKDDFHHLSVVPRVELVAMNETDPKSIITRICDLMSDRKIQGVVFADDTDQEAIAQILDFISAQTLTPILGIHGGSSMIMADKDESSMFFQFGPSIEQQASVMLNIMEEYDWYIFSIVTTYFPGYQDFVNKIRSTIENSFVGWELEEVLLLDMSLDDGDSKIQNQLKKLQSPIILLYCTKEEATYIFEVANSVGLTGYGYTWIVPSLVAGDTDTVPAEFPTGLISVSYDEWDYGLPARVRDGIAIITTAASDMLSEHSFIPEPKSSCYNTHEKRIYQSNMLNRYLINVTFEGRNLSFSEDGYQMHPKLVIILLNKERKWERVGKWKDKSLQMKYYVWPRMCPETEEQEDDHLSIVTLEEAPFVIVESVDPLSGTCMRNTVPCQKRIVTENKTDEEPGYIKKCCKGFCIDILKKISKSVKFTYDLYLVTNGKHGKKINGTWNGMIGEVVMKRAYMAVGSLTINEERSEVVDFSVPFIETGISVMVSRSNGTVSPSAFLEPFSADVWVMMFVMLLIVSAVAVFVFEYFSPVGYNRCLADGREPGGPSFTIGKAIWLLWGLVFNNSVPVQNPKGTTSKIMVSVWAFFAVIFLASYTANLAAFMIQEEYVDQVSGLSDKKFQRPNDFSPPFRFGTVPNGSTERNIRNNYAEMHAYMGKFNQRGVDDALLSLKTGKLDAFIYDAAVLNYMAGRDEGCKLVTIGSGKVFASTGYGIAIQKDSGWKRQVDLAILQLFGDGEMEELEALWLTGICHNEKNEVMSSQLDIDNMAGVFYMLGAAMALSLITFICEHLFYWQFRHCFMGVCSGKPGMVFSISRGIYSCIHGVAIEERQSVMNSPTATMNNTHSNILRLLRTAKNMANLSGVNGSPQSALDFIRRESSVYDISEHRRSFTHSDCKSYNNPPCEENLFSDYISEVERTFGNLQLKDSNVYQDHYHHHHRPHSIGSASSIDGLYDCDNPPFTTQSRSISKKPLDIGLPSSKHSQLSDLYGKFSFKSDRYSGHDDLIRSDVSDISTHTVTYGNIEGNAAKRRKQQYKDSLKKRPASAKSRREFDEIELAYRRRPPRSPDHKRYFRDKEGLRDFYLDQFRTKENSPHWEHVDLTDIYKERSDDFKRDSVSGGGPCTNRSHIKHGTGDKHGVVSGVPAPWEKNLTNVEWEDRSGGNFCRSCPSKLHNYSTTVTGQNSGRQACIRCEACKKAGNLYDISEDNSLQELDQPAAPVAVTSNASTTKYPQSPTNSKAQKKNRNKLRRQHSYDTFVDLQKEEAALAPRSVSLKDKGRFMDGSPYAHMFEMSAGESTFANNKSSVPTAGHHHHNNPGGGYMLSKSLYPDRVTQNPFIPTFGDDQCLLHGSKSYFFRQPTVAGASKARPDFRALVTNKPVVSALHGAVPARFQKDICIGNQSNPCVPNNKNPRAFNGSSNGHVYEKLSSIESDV

[15] = Displacement of [3H]-(+)-MK-801 from NMDA PCP binding site in pig brain cortex membrane incubated for 120 mins by scintillation counting method; format: cell membranes, Sus scrofa
[16] = biological target: T1, Sigma non-opioid intracellular receptor 1
[17] = biological target: T2, Sigma intracellular receptor 2; test: Displacement of [3H]-DTG from sigma2 receptor in rat liver membranes; format: cell membranes, Membrane
Mu-type opioid receptor [18] = biological target: Mu-type opioid receptor (Cavia porcellus, UniProt P97266); test: Displacement of [3H]DAMGO from MOR in guinea pig brain membranes incubated for 120 mins by scintillation counting method; format: cell membranes, Membrane
Chain of Mu-type opioid receptor (Cavia porcellus, UniProt P97266) (P97266 whole entry): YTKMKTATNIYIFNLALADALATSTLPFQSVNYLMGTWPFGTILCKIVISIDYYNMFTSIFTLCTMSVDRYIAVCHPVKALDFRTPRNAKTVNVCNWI

Mus musculus [19] = test: Antiallodynic activity in CD1 mouse model of capsaicin-induced mechanical allodynia assessed as effect on paw withdrawal latency time at 2 to 64 mg/kg, sc administered 30 mins before capsaicin addition and measured at 30 secs intervals; format: functional, organism-based
Mus musculus [20] = test: Antiallodynic activity in CD1 mouse model of capsaicin-induced mechanical allodynia assessed as effect on paw withdrawal latency time at 4 to 64 mg/kg, sc administered 30 mins before capsaicin addition and measured at 30 secs intervals; format: functional, organism-based
Mus musculus [21] = test: Antiallodynic activity in CD1 mouse model of capsaicin-induced mechanical allodynia assessed as effect on paw withdrawal latency time at 8 to 16 mg/kg, sc administered 5 mins after sigma1 receptor agonist PRE-084 dosing followed by capsaicin addition and measured after 30 mins post compound dose; format: functional, organism-based
in vitro = settings: mouse, liver microsomes
Description: Metabolic stability in mouse liver microsomes assessed as compound remaining at 25 uM after 1 hr in presence of NADPH by LC-MS analysis

Mu-type opioid receptor [22] = biological target: Mu-type opioid receptor (Homo sapiens, UniProt P35372); test: Agonist activity at human MOR expressed in CHOK1 cells assessed as reduction in forskolin-induced intracellular cAMP increase after 45 mins by HTRF analysis; format: functional, cell-based
Mus musculus [23] = test: Antiallodynic activity in CD1 mouse model of capsaicin-induced mechanical allodynia assessed as effect on paw withdrawal latency time at 32 mg/kg, sc administered 5 mins after sigma1 receptor agonist PRE-084 dosing followed by capsaicin addition and measured after 30 mins post compound dose; format: functional, organism-based

- Ki [1]: 639 nM
- Ki [2]: 58 nM
Compound: COc1cc2c(cc1OC)CN(C1CCC3(CC1)O[C@H](OC)Cc1ccccc13)CC2 (stereo partly specified)

- Ki [2]: 54 nM
Compound: CO[C@H]1Cc2ccccc2C2(CCC(NCc3ccc(C)cc3C)CC2)O1 (stereo partly specified)

- inhibition [3]: < 50%
- Ki [1]: 47 nM
- inhibition [4]: 76%
- Ki [5]: 781 nM
- Ki [2]: 27 nM
- inhibition [6]: < 50%
- inhibition [7]: < 50%
- inhibition [8]: < 50%
- Stability [9]: Stable
- Stability [10]: Stable
- inhibition [11]: 55%
- inhibition [13]: < 50%
- Ki [14]: 34 nM
- Ki [15]: > 1000 nM
Compound: O[C@H]1Cc2ccccc2C2(CCC(N3CCN(C4CCCCC4)CC3)CC2)O1 (stereo partly specified)
- IC50 [12]: 3210 nM

- Ki [2]: 355 nM
Compound: CCOC(=O)C[C@@H]1Cc2ccccc2C2(CCC(N3CCN(C4CCCCC4)CC3)CC2)O1 (stereo partly specified)

- Ki [1]: 17 nM
- Ki [16]: 17 nM
Compound: Fc1ccc(-n2cc(CCCCN3CCC4(CC3)OCc3ccccc34)c3ccccc32)cc1 [SIRAMESINE]

- Ki [2]: 343 nM
Compound: CCOC(=O)C[C@H]1Cc2ccccc2C2(CCC(N3CCc4cc(OC)c(OC)cc4C3)CC2)O1 (stereo partly specified)

Compound: Cc1ccc(CNC2CCC3(CC2)O[C@H](O)Cc2ccccc23)c(C)c1 (stereo partly specified)
- Ki [1]: 349 nM
- Ki [2]: 181 nM

- Ki [1]: 583 nM
- Ki [2]: 99 nM
Compound: COc1cc2c(cc1OC)CN(C1CCC3(CC1)O[C@H](O)Cc1ccccc13)CC2 (stereo partly specified)

Compound: COc1cccc2c1CCCC2CCCN1CCN(C2CCCCC2)CC1 (stereo unspecified)
- Ki [17]: 0.68 nM
- Ki [2]: 0.68 nM

- Ki [1]: 77 nM
Compound: O[C@@H]1Cc2ccccc2C2(CCC(N3CCN(C4CCCCC4)CC3)CC2)O1 (stereo partly specified)

- inhibition [3]: < 50%
- inhibition [4]: 98%
- Ki [2]: 51 nM
- inhibition [6]: < 50%
- inhibition [7]: < 50%
- Ki (Mu-type opioid receptor [18]): 458 nM
- inhibition [8]: 78%
- Stability [9]: Stable
- Stability [10]: Stable
- inhibition [11]: 68%
- inhibition [13]: < 50%
- Ki [14]: 54 nM
- Ki [15]: > 1000 nM
Compound: CCOC(=O)C[C@H]1Cc2ccccc2C2(CCC(N3CCN(C4CCCCC4)CC3)CC2)O1 (stereo partly specified)
- IC50 [12]: 1750 nM

- Ki [2]: 105 nM
Compound: COc1cc2c(cc1OC)CN(C1CCC3(CC1)O[C@@H](OC)Cc1ccccc13)CC2 (stereo partly specified)

Compound: Cc1ccc(CNC2CCC3(CC2)O[C@@H](O)Cc2ccccc23)c(C)c1 (stereo partly specified)
- Ki [2]: 66 nM

- Ki [1]: 966 nM
Compound: Cc1ccc(CNC2CCC3(CC2)O[C@@H](CCF)Cc2ccccc23)c(C)c1 (stereo partly specified)

- Ki [2]: 49 nM
Compound: CO[C@@H]1Cc2ccccc2C2(CCC(NC3CCc4ccccc4CC3)CC2)O1 (stereo partly specified)

Compound: CN1CCN(CCc2ccc(Cl)c(Cl)c2)CC1
- Activity (Mus musculus [19]): Active
- Activity (Mus musculus [20]): Active

- inhibition [3]: < 50%
- inhibition [4]: < 50%
- Ki [2]: 45 nM
- remaining at 1 h, 25 µM (in vitro): 71.8%
- inhibition [6]: < 50%
- inhibition [7]: < 50%
- inhibition [8]: < 50%
- inhibition [11]: 62%
- EC50 (Mu-type opioid receptor [22]): 1760 nM
- inhibition [13]: < 50%
- Ki [14]: 65 nM
- Ki [15]: > 1000 nM
Compound: FCC[C@@H]1Cc2ccccc2C2(CCC(N3CCN(C4CCCCC4)CC3)CC2)O1 (stereo partly specified)
- Activity (Mus musculus [21]): inactive
- Activity (Mus musculus [19]): Active
- Activity (Mus musculus [23]): Active

Compound: COc1cc2c(cc1OC)CN(CCCCNC(=O)c1cc(Br)cc(OC)c1OC)CC2
- Ki [17]: 8.2 nM
- Ki [2]: 8.2 nM
